Measured values: US20240260573A1, “HEAT TOLERANCE-INDUCING AGENT FOR PLANTS AND METHOD FOR INDUCING HEAT TOLERANCE OF PLANTS” (AGC Inc., priority 2021, published 2024)

Legend:
[1] = Measurement of active ingredient retention rate after 7 days open storage at 23° C. or 50° C.; assay type: physicochemical; conditions: for residual active ingredient after storage (in words): after 7 days storage at either 23° C. or 50° C.
Experimental: The vial containing the sample was stored, without a lid attached, in an environment at either 23° C. or 50° C. for a period of 7 days. Following this storage period, the support ratio (%) of 2-hexenal was determined in the same manner as that described above in [Evaluation 1a].
Based on the measurement results, the 2-hexenal retention rates following storage at 23° C. and at 50° C. were each calculated using the formula below. In the formula, the [initial 2-hexenal content] represents the value determined in the above “Measurement of 2-Hexenal Support Ratio”.
2-Hexenal retention rate (%)=2-hexenal support ratio (%) after storage/initial 2-hexenal support ratio (%)×100
The vial containing the sample was stored in an environment at either 23° C. or 50° C. for a period of 7 days. Following this storage period, the support ratio (%) of 2-hexenal was determined in the same manner as that described above in [Evaluation 2a].
Based on the measurement result, the 2-hexenal retention rate (%) was determined in the same manner as that described above in [Evaluation 1b].
The vial containing the sample was stored in an environment at either 23° C. or 50° C. for a period of 7 days. Following this storage period, the sample mass (g) remaining in the vial was measured, and this value was deemed the 2-hexenal support ratio (%) after storage.
With the exception of using 3-hepten-2-one instead of 2-hexenal as the active ingredient, evaluations were conducted in the same manner as Example 1.
An agent prepared by mixing trioxane and 3-hepten-2-one (in a mass ratio of 100:0.35) and then freeze drying the mixture was used as a heat tolerance-inducing agent, and evaluations were conducted in the same manner as Example 11.
Example 15 used 3-hepten-2-one alone as a heat tolerance-inducing agent. Evaluations were conducted in the same manner as Example 12.

[2] = Measurement of active ingredient support ratio (solvent extraction / gas chromatography); assay type: physicochemical
Experimental: First, 5 g of a mixed solvent of chloroform:methanol=9:1 (volume ratio) was added to the vial containing the sample, and the mixture was stirred for one minute to extract the supported 2-hexenal. Hexadecane was then added as an internal standard, and the resulting mixture was filtered. The thus obtained filtrate (the extract solution containing the internal standard) was analyzed by gas chromatography, and the amount (mg) of supported 2-hexenal was calculated using a calibration curve prepared in advance using hexadecane as an internal standard. The support ratio (%) of 2-hexenal within 100% of the sample was determined from the calculated supported amount (mg) and the mass of the sample inside the vial.
With the exception that chloroform was added to the vial containing the sample to dissolve the sample, hexadecane was added to the resulting solution as an internal standard, and analysis was then conducted by gas chromatography (7890A apparatus manufactured by Agilent Technologies, Inc.), the support ratio (%) of 2-hexenal within 100% of the sample was determined in the same manner as that described above in [Evaluation 1a].
In Example 12, because 2-hexenal was used alone, the initial 2-hexenal support ratio was deemed to be 100%.
With the exception of using 3-hepten-2-one instead of 2-hexenal as the active ingredient, evaluations were conducted in the same manner as Example 1. […]

[3] = sample for 23° C. storage, before storage
[4] = sample for 50° C. storage, before storage

| 3-hepten-2-one support amount, Storage at 23° C., After 7 days ([1]; 23° C., 7 days) [mg] | 3-hepten-2-one support amount, Storage at 50° C., After 7 days ([1]; 50° C., 7 days) [mg] | 3-hepten-2-one retention rate 23° C. ([1]; after 7 days storage at 23° C.) [%] | 3-hepten-2-one retention rate 50° C. ([1]; after 7 days storage at 50° C.) [%] | 3-hepten-2-one support amount, Storage at 23° C., Initial [1, 3] [mg] | 3-hepten-2-one support amount, Storage at 50° C., Initial [1, 4] [mg] | 3-hepten-2-one support ratio ([2]; 3-hepten-2-one used alone, evaluated as Example 12 (deemed 100%)) [%] | 2-hexenal support amount, Storage at 23° C., After 7 days ([1]; 23° C., 7 days, vial without lid) [mg] | 2-hexenal support amount, Storage at 50° C., After 7 days ([1]; 50° C., 7 days, vial without lid) [mg] | 2-hexenal retention rate 23° C. ([1]; after 7 days storage at 23° C.) [%] | 2-hexenal retention rate 50° C. ([1]; after 7 days storage at 50° C.) [%] | 2-hexenal support amount, Storage at 23° C., Initial [1, 3] [mg] | 2-hexenal support amount, Storage at 50° C., Initial [1, 4] [mg] | 2-hexenal support ratio ([2]; 2-hexenal used alone, initial support ratio deemed to be 100%) [%] | SMILES | residual active ingredient after storage (in words) [1] |
| --- | --- | --- | --- | --- | --- | --- | --- | --- | --- | --- | --- | --- | --- | --- | --- |
| 0 | 0 | 0 | 0 | 11.5 | 10.7 | 100 |  |  |  |  |  |  |  | CCCC=CC(C)=O [Example 15, 3-hepten-2-one] | no residual active ingredient was retained |
|  |  |  |  |  |  |  | 0 | 0 | 0 | 0 | 13 | 12.5 | 100 | CCCC=CC=O [Example 12, 2-hexenal] | no residual active ingredient was retained |
